# Bridge positions count the residues as written; N and C are the ends. Square brackets hold non-standard residues; d marks the D form. Triazole bridges read from a SMILES are 1,4-linked. Peptide text beside a SMILES is read from it. Tyr(3-I) = N[C@@H](Cc1ccc(O)c(I)c1)C(=O)O; Orn(N3) = [N-]=[N+]=NCCC[C@H](N)C(=O)O; NMeR = CN[C@@H](CCCNC(=N)N)C(=O)O; Cit = NC(=O)NCCC[C@H](N)C(=O)O; Pra = C#CC[C@H](N)C(=O)O
# Key:
# rat α9α10 nAChR = rat α9α10 nAChR (Rattus norvegicus, UniProt P43144+Q9JLB5); assay: cell-based; format: cell-based; settings: α9α10 nAChR IC50 (nM) Rat
# rat α9α10 nAChR, sequence (P43144 26-479 limits assumed): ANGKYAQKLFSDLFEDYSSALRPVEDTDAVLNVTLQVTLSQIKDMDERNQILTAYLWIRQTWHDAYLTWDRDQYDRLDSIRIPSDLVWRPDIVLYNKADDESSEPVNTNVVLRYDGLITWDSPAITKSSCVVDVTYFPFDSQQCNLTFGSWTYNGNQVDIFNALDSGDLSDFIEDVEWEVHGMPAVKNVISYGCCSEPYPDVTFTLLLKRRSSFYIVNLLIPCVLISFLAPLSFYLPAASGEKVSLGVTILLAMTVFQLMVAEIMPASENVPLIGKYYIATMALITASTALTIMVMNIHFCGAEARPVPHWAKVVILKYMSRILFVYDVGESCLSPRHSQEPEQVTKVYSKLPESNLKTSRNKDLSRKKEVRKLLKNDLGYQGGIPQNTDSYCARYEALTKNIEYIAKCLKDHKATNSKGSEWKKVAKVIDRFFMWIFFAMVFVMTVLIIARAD
# rat α9α10 nAChR, sequence (Q9JLB5 25-447 limits assumed): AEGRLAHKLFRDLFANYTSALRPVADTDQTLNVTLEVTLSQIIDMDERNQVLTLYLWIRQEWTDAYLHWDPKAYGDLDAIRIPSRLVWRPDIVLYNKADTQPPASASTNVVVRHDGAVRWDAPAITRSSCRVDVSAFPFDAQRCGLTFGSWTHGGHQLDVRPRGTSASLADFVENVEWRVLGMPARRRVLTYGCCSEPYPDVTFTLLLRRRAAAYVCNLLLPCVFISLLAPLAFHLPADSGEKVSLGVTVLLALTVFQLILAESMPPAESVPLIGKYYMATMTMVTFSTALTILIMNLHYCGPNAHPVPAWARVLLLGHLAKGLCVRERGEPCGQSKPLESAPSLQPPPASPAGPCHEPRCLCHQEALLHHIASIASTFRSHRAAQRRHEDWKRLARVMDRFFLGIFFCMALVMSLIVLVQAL
# human α9α10 nAChR = human α9α10 nAChR (Homo sapiens, UniProt Q9GZZ6+Q9UGM1); assay: cell-based; format: cell-based
# human α9α10 nAChR, sequence (Q9UGM1 26-479 limits assumed): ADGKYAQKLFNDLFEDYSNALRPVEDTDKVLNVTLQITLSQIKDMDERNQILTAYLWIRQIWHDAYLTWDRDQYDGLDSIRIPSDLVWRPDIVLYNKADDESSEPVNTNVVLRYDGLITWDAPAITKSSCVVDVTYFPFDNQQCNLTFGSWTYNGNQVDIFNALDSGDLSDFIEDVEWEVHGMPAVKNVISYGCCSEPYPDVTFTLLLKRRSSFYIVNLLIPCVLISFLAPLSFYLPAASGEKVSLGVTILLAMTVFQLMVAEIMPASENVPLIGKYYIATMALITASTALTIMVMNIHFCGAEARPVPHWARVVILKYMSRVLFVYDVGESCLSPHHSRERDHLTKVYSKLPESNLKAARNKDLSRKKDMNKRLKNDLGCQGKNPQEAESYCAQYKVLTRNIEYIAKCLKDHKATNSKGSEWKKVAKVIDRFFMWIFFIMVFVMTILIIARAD
# human α9α10 nAChR, sequence (Q9GZZ6 25-450 limits assumed): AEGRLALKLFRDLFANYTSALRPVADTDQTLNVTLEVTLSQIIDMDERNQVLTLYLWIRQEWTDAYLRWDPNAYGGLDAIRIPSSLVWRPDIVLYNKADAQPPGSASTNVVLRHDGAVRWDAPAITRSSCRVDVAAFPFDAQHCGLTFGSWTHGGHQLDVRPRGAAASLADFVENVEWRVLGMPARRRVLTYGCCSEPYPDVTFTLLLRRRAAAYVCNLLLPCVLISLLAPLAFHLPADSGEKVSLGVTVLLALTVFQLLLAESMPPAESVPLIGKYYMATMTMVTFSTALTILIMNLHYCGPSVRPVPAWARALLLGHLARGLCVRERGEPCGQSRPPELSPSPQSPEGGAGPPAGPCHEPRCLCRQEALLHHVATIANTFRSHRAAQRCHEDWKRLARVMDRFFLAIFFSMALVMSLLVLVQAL
# α7 nAChR = α7 nAChR (Homo sapiens, UniProt P36544); settings: 10 μM; read-out: Partial inhibition of the α7 nAChR
# α7 nAChR, sequence (P36544 23-502 limits assumed): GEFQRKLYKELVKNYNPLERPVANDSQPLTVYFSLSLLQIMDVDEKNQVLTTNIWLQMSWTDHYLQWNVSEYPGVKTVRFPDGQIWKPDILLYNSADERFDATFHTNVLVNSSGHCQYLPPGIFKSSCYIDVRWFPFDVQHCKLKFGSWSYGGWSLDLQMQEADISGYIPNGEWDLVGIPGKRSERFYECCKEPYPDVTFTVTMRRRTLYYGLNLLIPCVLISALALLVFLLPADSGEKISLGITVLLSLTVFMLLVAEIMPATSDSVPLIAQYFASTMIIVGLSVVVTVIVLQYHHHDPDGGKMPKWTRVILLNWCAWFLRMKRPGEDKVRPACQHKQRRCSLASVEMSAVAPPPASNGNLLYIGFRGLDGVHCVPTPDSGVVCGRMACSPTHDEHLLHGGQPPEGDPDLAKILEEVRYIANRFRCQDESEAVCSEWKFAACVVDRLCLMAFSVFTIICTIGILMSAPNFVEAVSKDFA
# [1] = test system: chronic constriction injury (CCI) model; design: species or system Sprague Dawley rats; settings: rat, in vivo
# [2] = test system: 88 receptors, transporters, enzymes and kinases; settings: 10 μM
Structure (SMILES),IC50 (rat α9α10 nAChR) [nM],IC50 (human α9α10 nAChR) [nM],inhibition at 10 µM (α7 nAChR) [%],Paw withdrawal thresholds relative to vehicle-treated control animals [1],"Off-target effects in panel of 88 receptors, transporters, enzymes and kinases [2]"
"C[C@@H](O)[C@@H]1NC(=O)[C@@H]2Cc3cn(nn3)CCC[C@@H](C(=O)N[C@@H](Cc3ccc(O)cc3)C(N)=O)NC(=O)[C@H](CCC(N)=O)NC(=O)[C@H](Cc3ccc(O)c(I)c3)NC(=O)[C@H](CCCNC(N)=O)NC(=O)[C@H](CSSC[C@H](NC(=O)CN)C(=O)N2)NC(=O)[C@H](CCCNC(=N)N)NC(=O)[C@@H]2CCCN2C(=O)[C@H](CC(=O)O)NC1=O [Ib′, L-tyrosinamide, glycyl-L-cysteinyl-L-alanyl-L-threonyl-L-α-aspartyl-L-prolyl-L-arginyl-L-cysteinyl-N5-(aminocarbonyl)-L-ornithyl-L-3-iodotyrosyl-L-glutaminyl-L-norvalyl-cyclic (2→8)-disulfide-cyclic 3^3,12^5-(1H-1,2,3-triazole-4,1-diyl)] (H-GC[Pra]TDPRC[Cit][Tyr(3-I)]Q[Orn(N3)]Y-NH2; disulfide 2-8; triazole 3-12)",2.3 ± 0.5,48 ± 9,56,statistically significant improvement in paw withdrawal thresholds,no off-target effects
"C[C@@H](O)[C@@H]1NC(=O)[C@@H]2Cc3cn(nn3)CCC[C@@H](C(=O)N(C)[C@@H](CCCNC(=N)N)C(=O)O)NC(=O)[C@H](CCC(N)=O)NC(=O)[C@H](Cc3c[nH]c4ccccc34)NC(=O)[C@H](CCCNC(N)=O)NC(=O)[C@H](CSSC[C@H](NC(=O)CN)C(=O)N2)NC(=O)[C@H](CCCNC(=N)N)NC(=O)[C@@H]2CCCN2C(=O)[C@H](CC(=O)O)NC1=O [Iv, L-arginine, glycyl-L-cysteinyl-L-alanyl-L-threonyl-L-α-aspartyl-L-prolyl-L-arginyl-L-cysteinyl-N5-(aminocarbonyl)-L-ornithyl-L-tryptophyl-L-glutaminyl-L-norvalyl-N-methyl-cyclic (2→8)-disulfide-cyclic 3^3,12^5-(1H-1,2,3-triazole-4,1-diyl)] (H-GC[Pra]TDPRC[Cit]WQ[Orn(N3)][NMeR]-OH; disulfide 2-8; triazole 3-12)",< 30,~100,,,
"C[C@@H](O)[C@@H]1NC(=O)[C@@H]2CCC(=O)NCCCC[C@@H](C(=O)N[C@@H](Cc3ccc(O)cc3)C(N)=O)NC(=O)[C@H](CCC(N)=O)NC(=O)[C@H](Cc3ccc(O)c(I)c3)NC(=O)[C@H](CCCNC(N)=O)NC(=O)[C@H](CSSC[C@H](NC(=O)CN)C(=O)N2)NC(=O)[C@H](CCCNC(=N)N)NC(=O)[C@@H]2CCCN2C(=O)[C@H](CC(=O)O)NC1=O [Iw, L-tyrosinamide, glycyl-L-cysteinyl-L-glutamyl-L-threonyl-L-α-aspartyl-L-prolyl-L-arginyl-L-cysteinyl-N5-(aminocarbonyl)-L-ornithyl-L-3-iodotyrosyl-L-glutaminyl-L-lysyl-cyclic (2→8)-disulfide-cyclic-(3→12)-lactam] (H-GCETDPRC[Cit][Tyr(3-I)]QKY-NH2; disulfide 2-8; lactam 3-12)",36 ± 9,> 300,,,
C[C@@H](O)[C@@H]1NC(=O)[C@@H]2CCCCNC(=O)CC[C@@H](C(=O)N[C@@H](Cc3ccc(O)cc3)C(N)=O)NC(=O)[C@H](CCC(N)=O)NC(=O)[C@H](Cc3ccc(O)c(I)c3)NC(=O)[C@H](CCCNC(N)=O)NC(=O)[C@H](CSSC[C@H](NC(=O)CN)C(=O)N2)NC(=O)[C@H](CCCNC(=N)N)NC(=O)[C@@H]2CCCN2C(=O)[C@H](CC(=O)O)NC1=O [Ix] (H-GCKTDPRC[Cit][Tyr(3-I)]QEY-NH2; disulfide 2-8; lactam 3-12),21 ± 1.4,123 ± 22,,,

# — patent US11612661B2 (priority 2019, dated 2023)
